The text below walks through data of patent US20210330611A1, “THERAPY FOR NEUROLOGICAL DISEASES/DISORDERS” (priority 2020, published 2021).

Data set [1] concerns fibrin-induced microglia activation. Kind of data set: Image-based assay of fibrin-induced microglia activation (HTS and dose response). In kind it is cell-based, rat. The following applies: for inhibition at 10 µM: Rattus norvegicus, Microglia, read-out: Fibrin % inhibition.
Data set [2] has as its system LPS-induced microglia activation. Kind of data set: Image-based assay of LPS-induced microglia activation (HTS and dose response). In kind it is cell-based, rat.
The subject of data set [3] is fibrin- and LPS-induced microglia activation. Kind of data set: cells. In kind it is cell-based, rat.
Data set [4] relates to primary rat microglia.
The test system of data set [5] is primary rat microglia. This is another data set of the same source.
The mark [6] stands for this setting: Rattus norvegicus, Microglia, 48 h, read-out: LPS % inhibition.
Where [7] appears, read: primary microglia HTS, fibrin stimulation, cell size >800 μm2 as marker of activation.
Setting [8] is: Rattus norvegicus, Microglia, 48 h; read-out: LPS % inhibition.
Where [9] appears, read: classification by fibrin and LPS inhibition in HTS.

pIC50: −log10 of the molar value. Where two headings read alike, the source gives them in different places. Where only a bound is given, the exact number is not on record here.
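Throughout, for Fibrin % cell toxicity: share of dead cells sized under 150 µm2 at 10 µM in fibrin-stimulated microglia HTS.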

As for `Oc1ccc(Cl)cc1` [Parachlorophenol], the inhibition (commonly the change of the read-out against control, counted positive when it falls) at 10 µM in data set [1] came out at 21%; in data set [2] (setting [6]), 15%. For the same molecule, the “Quadrant (FIG. 5b)” value in data set [3] is on record as “Q4”. In addition, the “Fibrin % cell toxicity” value in data set [4] (rat) was determined as 0%. Also, the “LPS % cell toxicity” value in data set [5] (rat) is 0%.
As to `Fc1ccc([C@@H]2CCNC[C@H]2COc2ccc3c(c2)OCO3)cc1` [Paroxetine], the values for the inhibition at 10 µM in data set [1] (setting [7]) and in data set [2] (setting [8]) were 38% and 15%, respectively. Further, in data set [3] (setting [9]), the “Quadrant (FIG. 5b)” value is given as “Q4”. For the same molecule, in data set [4] (rat), the “Fibrin % cell toxicity” value turned out to be 1%. The “LPS % cell toxicity” value in data set [5] (rat) is on record as 0%.
On the same counts, the results for `Nc1nc2[nH]cc(CCc3ccc(C(=O)N[C@@H](CCC(=O)O)C(=O)O)cc3)c2c(=O)[nH]1` [Pemetrexed] are -8%, 9%, “Q4”, 0% and 0%.
On the same counts, the results for `CC(C)(C)NC[C@H](O)COc1ccccc1C1CCCC1` [Penbutolol] are -8%, 17%, “Q4”, 1% and 0%.
Turning to `CC(C)(S)[C@@H](N)C(=O)O` [Penicillamine], the inhibition at 10 µM in data set [1] (setting [7]) was -15%; in data set [2] (setting [8]) it was 16%. In addition, the “Quadrant (FIG. 5b)” value in data set [3] (setting [9]) is “Q4”. In addition, the “Fibrin % cell toxicity” value in data set [4] (rat) was 0%. For the same molecule, the “LPS % cell toxicity” value in data set [5] (rat) amounted to 0%.
As for `N=C(N)c1ccc(OCCCCCOc2ccc(C(=N)N)cc2)cc1` [Pentamidine], the inhibition at 10 µM stood at 6% in data set [1] and 33% in data set [2] (setting [6]). In addition, in data set [3], the “Quadrant (FIG. 5b)” value was “Q4”. Also, in data set [4] (rat), the “Fibrin % cell toxicity” value worked out at 1%. The “LPS % cell toxicity” value in data set [5] (rat) stood at 1%.
Consider `CC(=O)CCCCn1c(=O)c2c(ncn2C)n(C)c1=O` [Pentoxifylline], for which the results for the inhibition at 10 µM in data set [1] (setting [7]) and in data set [2] (setting [8]) were 4% and 6%, respectively. Further, the “Quadrant (FIG. 5b)” value in data set [3] (setting [9]) is reported as “Q4”. For the same molecule, in data set [4] (rat), the “Fibrin % cell toxicity” value amounted to 0%. In data set [5] (rat), the “LPS % cell toxicity” value is recorded as 0%.
With `NNCCc1ccccc1` [Phenelzine], the inhibition at 10 µM in data set [1] was 2%; in data set [2] (setting [6]), -4%. In data set [3], the “Quadrant (FIG. 5b)” value was “Q4”. Besides, in data set [4] (rat), the “Fibrin % cell toxicity” value was 1%. Further, in data set [5] (rat), the “LPS % cell toxicity” value came to 0%.
Regarding `CN(C)CCC(c1ccccc1)c1ccccn1` (stereo not shown) [Pheniramine], the inhibition at 10 µM in data set [1] (setting [7]) is -9%; in data set [2] (setting [8]) it was 1%. The “Quadrant (FIG. 5b)” value in data set [3] (setting [9]) was “Q4”. Further, in data set [4] (rat), the “Fibrin % cell toxicity” value is 1%. Further, in data set [5] (rat), the “LPS % cell toxicity” value turned out to be 0%.
On to `CC(C)=CC1C(C(=O)OCc2cccc(Oc3ccccc3)c2)C1(C)C` (stereo not shown) [Phenothrin], for which the values for the inhibition at 10 µM in data set [1] (setting [7]) and in data set [2] (setting [8]) were -50% and 11%, respectively. For the same molecule, the “Quadrant (FIG. 5b)” value in data set [3] (setting [9]) is “Q4”. Further, the “Fibrin % cell toxicity” value in data set [4] (rat) is 0%. Moreover, in data set [5] (rat), the “LPS % cell toxicity” value was determined as 0%.
`CC(COc1ccccc1)N(CCCl)Cc1ccccc1` (stereo not shown) [Phenoxybenzamine]: the inhibition at 10 µM in data set [1] (setting [7]) is 8%; in data set [2] (setting [8]) it was -5%. Further, the “Quadrant (FIG. 5b)” value in data set [3] (setting [9]) is recorded as “Q4”. The “Fibrin % cell toxicity” value in data set [4] (rat) worked out at 1%. Moreover, in data set [5] (rat), the “LPS % cell toxicity” value is reported as 0%.
On the same counts, the results for `CCCCC1C(=O)N(c2ccccc2)N(c2ccccc2)C1=O` [Phenylbutazone] are -23%, 5%, “Q4”, 0% and 0%.
Regarding `CNC[C@H](O)c1cccc(O)c1` [Phenylephrine], the inhibition at 10 µM in data set [1] worked out at 38%; in data set [2] (setting [6]), 31%. Besides, the “Quadrant (FIG. 5b)” value in data set [3] is “Q4”. For the same molecule, in data set [4] (rat), the “Fibrin % cell toxicity” value was found to be 1%. In addition, the “LPS % cell toxicity” value in data set [5] (rat) is 0%.
Take `CC1=C(C/C=C(\C)CCC[C@H](C)CCC[C@H](C)CCCC(C)C)C(=O)c2ccccc2C1=O` [Phylloquinone]: the Fibrin % inhibition in data set [1] (setting [7]) is listed as 4%. The LPS % inhibition in data set [2] turned out to be 31%. Also, the “Quadrant (FIG. 5b)” value in data set [3] (setting [9]) is reported as “Q4”. The “Fibrin % cell toxicity” value in data set [4] turned out to be 0%. In addition, the “LPS % cell toxicity” value in data set [5] turned out to be 2%.
Turning to `CNC(=O)Oc1ccc2c(c1)[C@]1(C)CCN(C)[C@@H]1N2C` [Physostigmine], the inhibition at 10 µM is -73% in data set [1] (setting [7]) and 18% in data set [2] (setting [8]). Further, the “Quadrant (FIG. 5b)” value in data set [3] (setting [9]) was “Q4”. Moreover, in data set [4] (rat), the “Fibrin % cell toxicity” value is reported as 0%. For the same molecule, the “LPS % cell toxicity” value in data set [5] (rat) worked out at 0%.
For `CCn1cc(C(=O)O)c(=O)c2cnc(N3CCNCC3)nc21` [Pipemidic Acid], the inhibition at 10 µM in data set [1] (setting [7]) is -27%; in data set [2] (setting [8]) it was 12%. The “Quadrant (FIG. 5b)” value in data set [3] (setting [9]) is listed as “Q4”. Further, the “Fibrin % cell toxicity” value in data set [4] (rat) is given as 1%. For the same molecule, in data set [5] (rat), the “LPS % cell toxicity” value is 0%.
Turning to `C1CNCCN1` [Piperazine], the inhibition at 10 µM in data set [1] was -3%; in data set [2] (setting [6]), 16%. The “Quadrant (FIG. 5b)” value in data set [3] was “Q4”. Also, the “Fibrin % cell toxicity” value in data set [4] (rat) was 0%. Moreover, the “LPS % cell toxicity” value in data set [5] (rat) is recorded as 0%.
In the case of `CCCCOCCOCCOCc1cc2c(cc1CCC)OCO2` [Piperonyl Butoxide], the figures for the inhibition at 10 µM in data set [1] and in data set [2] (setting [6]) were 0% and 12%, respectively. Besides, the “Quadrant (FIG. 5b)” value in data set [3] is “Q4”. In addition, the “Fibrin % cell toxicity” value in data set [4] (rat) was 0%. The “LPS % cell toxicity” value in data set [5] (rat) is on record as 0%.
As for `CN1CCN(CC(=O)N2c3ccccc3C(=O)Nc3cccnc32)CC1` [Pirenzepine], the values for the inhibition at 10 µM in data set [1] and in data set [2] (setting [6]) were 16% and 19%, respectively. Also, the “Quadrant (FIG. 5b)” value in data set [3] is on record as “Q4”. Besides, the “Fibrin % cell toxicity” value in data set [4] (rat) is 0%. Further, the “LPS % cell toxicity” value in data set [5] (rat) amounted to 0%.
Regarding `O=C([O-])C[C@H](O)C[C@H](O)/C=C/c1c(C2CC2)nc2ccccc2c1-c1ccc(F)cc1.O=C([O-])C[C@H](O)C[C@H](O)/C=C/c1c(C2CC2)nc2ccccc2c1-c1ccc(F)cc1.[Ca+2]` [Pitavastatin calcium, reference compound], in data set [1], the Fibrin % inhibition was determined as 100%, the “Fibrin Selectivity” value turned out to be 4 and the “Fibrin Selectivity (LOG10)” value is 0.61. Further, the pIC50 (commonly the negative decadic logarithm of the IC50, by convention in mol/L) in data set [1] (read-out: Fibrin IC50) is 6.00. In data set [1] (read-out: Fibrin IC50 (uM) (Suppl. Table 7)), the IC50 – broadly, the midpoint of a concentration-inhibition curve – was determined as 1 µM. In addition, the LPS % inhibition in data set [2] is listed as 66%. Besides, the pIC50 in data set [2] (read-out: LPS IC50) was 5.30. The IC50 in data set [2] (read-out: LPS IC50 (uM) (Suppl. Table 7)) came out at 5 µM. In addition, in data set [3], the “Cherry-picked Hit (Suppl. Table 7)” value is reported as “HIT (key: HIT: Hits were defined as molecules that exhibited greater than 50% inhibition of either fibrin or LPS activation)”, the Hit entry is on record as “HIT (key: HIT: Hits were defined as molecules that exhibited greater than 50% inhibition of either fibrin or LPS activation)” and the “Quadrant (FIG. 5b)” value is on record as “Q2”. Moreover, in data set [4], the “Fibrin % cell toxicity” value came out at 1% and the pIC50 is less than 4.70. Further, in data set [5], the pIC50 is less than 4.70 and the “LPS % cell toxicity” value is reported as 1%.
Regarding `COc1cc([C@@H]2c3cc4c(cc3[C@H](O)[C@H]3COC(=O)[C@H]23)OCO4)cc(OC)c1OC` [Podofilox/Podophyllotoxin], in data set [1] (primary microglia HTS, fibrin stimulation, increased cell size (>800 μm^2) as marker of activation), the Fibrin % inhibition came to 110%. The LPS % inhibition in data set [2] (primary microglia HTS, LPS stimulation; increased cell size (>800 μm^2) as marker of activation) is 107%. In addition, in data set [3] (quadrant by fibrin and LPS inhibition in HTS of 1907 compounds), the “Quadrant (FIG. 5b)” value is “Q2”. For the same molecule, the “Fibrin % cell toxicity” value in data set [4] is given as 8%. In addition, the “LPS % cell toxicity” value in data set [5] is 9%.
